ChEMBL document CHEMBL1671678, “Probing the antimalarial mechanism of artemisinin and OZ277 (arterolane) with nonperoxidic isosteres and nitroxyl radicals” (Antimicrob Agents Chemother, 2010)
In brackets after ≈: the same amount, converted by molar mass. One block for each molecule: values may come before it.

Assays:
Plasmodium falciparum [1] = assay: Antimalarial activity against Plasmodium falciparum K1 by [3H]hypoxanthine incorporation assay; type: functional, organism-based
Plasmodium falciparum [2] = assay: Antimalarial activity against Plasmodium falciparum NF54 by [3H]hypoxanthine incorporation assay in presence of 1:3 ratio of compound to 4-amino-2,2,6,6,-tetramethyl-1-piperidinyloxy; type: functional
Plasmodium falciparum [3] = assay: Antimalarial activity against Plasmodium falciparum NF54 by [3H]hypoxanthine incorporation assay in presence of 3:1 ratio of compound to 4-hydroxy-2,2,6,6,-tetramethyl-1-piperidinyloxy; type: functional
Plasmodium falciparum [4] = assay: Antimalarial activity against Plasmodium falciparum NF54 by [3H]hypoxanthine incorporation assay in presence of 3:1 ratio of compound to 4-carboxy-2,2,6,6,-tetramethyl-1-piperidinyloxy; type: functional
Plasmodium falciparum [5] = assay: Antimalarial activity against Plasmodium falciparum NF54 by [3H]hypoxanthine incorporation assay in presence 1:3 ratio of compound to deoxyartemisinin; type: functional
Plasmodium falciparum [6] = assay: Antimalarial activity against Plasmodium falciparum NF54 by [3H]hypoxanthine incorporation assay in presence of 1:3 ratio of compound to 4-hydroxy-2,2,6,6,-tetramethyl-1-piperidinyloxy; type: functional
Plasmodium falciparum [7] = assay: Antimalarial activity against Plasmodium falciparum NF54 by [3H]hypoxanthine incorporation assay in presence of 3:1 ratio of compound to 2,2,6,6,-tetramethyl-1-piperidinyloxy; type: functional
Plasmodium falciparum [8] = assay: Antimalarial activity against Plasmodium falciparum NF54 by [3H]hypoxanthine incorporation assay in presence 1:3 ratio of compound to carbaOZ277; type: functional
Plasmodium falciparum [9] = assay: Antimalarial activity against Plasmodium falciparum NF54 by [3H]hypoxanthine incorporation assay in presence of 3:1 ratio of compound to 4-oxo-2,2,6,6,-tetramethyl-1-piperidinyloxy; type: functional
Plasmodium falciparum [10] = assay: Antimalarial activity against Plasmodium falciparum NF54 by [3H]hypoxanthine incorporation assay in presence of 1:3 ratio of compound to 4-carboxy-2,2,6,6,-tetramethyl-1-piperidinyloxy; type: functional
Plasmodium falciparum [11] = assay: Antimalarial activity against Plasmodium falciparum NF54 by [3H]hypoxanthine incorporation assay in presence of 1:1 ratio of compound to 2,2,6,6,-tetramethyl-1-piperidinyloxy; type: functional
Plasmodium falciparum [12] = assay: Antimalarial activity against Plasmodium falciparum NF54 by [3H]hypoxanthine incorporation assay in presence of 1:3 ratio of compound to 4-oxo-2,2,6,6,-tetramethyl-1-piperidinyloxy; type: functional
Plasmodium falciparum [13] = assay: Antimalarial activity against Plasmodium falciparum NF54 by [3H]hypoxanthine incorporation assay in presence 3:1 ratio of compound to carbaOZ277; type: functional
Plasmodium falciparum [14] = assay: Antimalarial activity against Plasmodium falciparum NF54 by [3H]hypoxanthine incorporation assay in presence of 4-oxo-2,2,6,6,-tetramethyl-1-piperidinyloxy; type: functional
Plasmodium falciparum [15] = assay: Antimalarial activity against Plasmodium falciparum NF54 by [3H]hypoxanthine incorporation assay in presence of carbaOZ277; type: functional
Plasmodium falciparum [16] = assay: Antimalarial activity against Plasmodium falciparum NF54 by [3H]hypoxanthine incorporation assay in presence of 4-carboxy-2,2,6,6,-tetramethyl-1-piperidinyloxy; type: functional
Plasmodium falciparum [17] = assay: Antimalarial activity against Plasmodium falciparum NF54 by [3H]hypoxanthine incorporation assay in presence 1:1 ratio of compound to carbaOZ277; type: functional
Plasmodium falciparum [18] = assay: Antimalarial activity against Plasmodium falciparum NF54 by [3H]hypoxanthine incorporation assay in presence of 4-hydroxy-2,2,6,6,-tetramethyl-1-piperidinyloxy; type: functional
Plasmodium falciparum [19] = assay: Antimalarial activity against Plasmodium falciparum NF54 by [3H]hypoxanthine incorporation assay in presence 1:1 ratio of compound to deoxyartemisinin; type: functional
Plasmodium falciparum [20] = assay: Antimalarial activity against Plasmodium falciparum NF54 by [3H]hypoxanthine incorporation assay in presence 3:1 ratio of compound to deoxyartemisinin; type: functional
Plasmodium falciparum [21] = assay: Antimalarial activity against Plasmodium falciparum NF54 by [3H]hypoxanthine incorporation assay in presence of 2,2,6,6,-tetramethyl-1-piperidinyloxy; type: functional
Plasmodium falciparum [22] = assay: Antimalarial activity against Plasmodium falciparum NF54 by [3H]hypoxanthine incorporation assay in presence of 1:1 ratio of compound to 4-carboxy-2,2,6,6,-tetramethyl-1-piperidinyloxy; type: functional
Plasmodium falciparum [23] = assay: Antimalarial activity against Plasmodium falciparum NF54 by [3H]hypoxanthine incorporation assay in presence of 4-amino-2,2,6,6,-tetramethyl-1-piperidinyloxy; type: functional
Plasmodium falciparum [24] = assay: Antimalarial activity against Plasmodium falciparum NF54 by [3H]hypoxanthine incorporation assay in presence of deoxyartemisinin; type: functional
Plasmodium falciparum [25] = assay: Antimalarial activity against Plasmodium falciparum NF54 by [3H]hypoxanthine incorporation assay in presence of 3:1 ratio of compound to 4-amino-2,2,6,6,-tetramethyl-1-piperidinyloxy; type: functional
Plasmodium falciparum [26] = assay: Antimalarial activity against Plasmodium falciparum NF54 by [3H]hypoxanthine incorporation assay in presence of 1:1 ratio of compound to 4-oxo-2,2,6,6,-tetramethyl-1-piperidinyloxy; type: functional
Plasmodium falciparum [27] = assay: Antimalarial activity against Plasmodium falciparum NF54 by [3H]hypoxanthine incorporation assay in presence of 1:3 ratio of compound to 2,2,6,6,-tetramethyl-1-piperidinyloxy; type: functional
Plasmodium falciparum [28] = assay: Antimalarial activity against Plasmodium falciparum NF54 by [3H]hypoxanthine incorporation assay in presence of 1:1 ratio of compound to 4-hydroxy-2,2,6,6,-tetramethyl-1-piperidinyloxy; type: functional
Plasmodium falciparum [29] = assay: Antimalarial activity against Plasmodium falciparum NF54 by [3H]hypoxanthine incorporation assay in presence of 1:1 ratio of compound to 4-amino-2,2,6,6,-tetramethyl-1-piperidinyloxy; type: functional
Plasmodium falciparum [30] = assay: Antimalarial activity against Plasmodium falciparum NF54 by [3H]hypoxanthine incorporation assay; type: functional, organism-based
[31] = Plasmodium falciparum, K1, read-out: IC50

SMILES: CC1(C)CC(N)CC(C)(C)N1[O] [TEMPAMINE]
- IC50 (Plasmodium falciparum [1]; [31]): 16 µg/mL (≈ 93.4 µM)

- IC50 (Plasmodium falciparum [1]; [31]): 12 µg/mL (≈ 30.7 µM)
SMILES: CC(C)(N)CNC(=O)CC1CC[C@]2(CC1)OC[C@]1(O2)C2CC3CC(C2)CC1C3 (stereo partly drawn)

SMILES: CC1(C)CC(=O)CC(C)(C)N1[O]
- IC50 (Plasmodium falciparum [1]; [31]): 2.2 µg/mL (≈ 12.9 µM)

SMILES: CC(C)(N)CNC(=O)C[C@H]1CC[C@]2(CC1)OO[C@]1(O2)C2CC3CC(C2)CC1C3 [OZ277]
- FIC50 (Plasmodium falciparum [2]): 2.3
- FIC50 (Plasmodium falciparum [3]): 1.2
- FIC50 (Plasmodium falciparum [4]): 1.2
- FIC50 (Plasmodium falciparum [5]): 1.4
- FIC50 (Plasmodium falciparum [6]): 1.5
- FIC50 (Plasmodium falciparum [7]): 1.2
- FIC50 (Plasmodium falciparum [8]): 1.2
- FIC50 (Plasmodium falciparum [9]): 1.1
- FIC50 (Plasmodium falciparum [10]): 1.3
- FIC50 (Plasmodium falciparum [11]): 1.5
- FIC50 (Plasmodium falciparum [12]): 1.4
- FIC50 (Plasmodium falciparum [13]): 1.1
- FIC50 (Plasmodium falciparum [14]): 1.3
- FIC50 (Plasmodium falciparum [15]): 1.3
- FIC50 (Plasmodium falciparum [16]): 1.3
- FIC50 (Plasmodium falciparum [17]): 1.2
- FIC50 (Plasmodium falciparum [18]): 1.3
- FIC50 (Plasmodium falciparum [19]): 1.3
- FIC50 (Plasmodium falciparum [20]): 1.2
- FIC50 (Plasmodium falciparum [21]): 1.5
- FIC50 (Plasmodium falciparum [22]): 1.3
- FIC50 (Plasmodium falciparum [23]): 2.1
- FIC50 (Plasmodium falciparum [24]): 1.2
- FIC50 (Plasmodium falciparum [25]): 1.7
- FIC50 (Plasmodium falciparum [26]): 1.3
- FIC50 (Plasmodium falciparum [27]): 1.8
- FIC50 (Plasmodium falciparum [28]): 1.3
- FIC50 (Plasmodium falciparum [29]): 2.4

- IC50 (Plasmodium falciparum [1]; [31]): 34 µg/mL (≈ 128 µM)
SMILES: C[C@@H]1CC[C@H]2[C@@H](C)C(=O)O[C@@H]3O[C@@]4(C)CC[C@@H]1[C@]32O4 [DEOXYARTEMISININ]

SMILES: CC1(C)CC(C(=O)O)CC(C)(C)N1[O]
- IC50 (Plasmodium falciparum [1]): 0.00057 µg/mL (≈ 0.00285 µM)
- IC50 (Plasmodium falciparum [30]): 0.00054 µg/mL (≈ 0.0027 µM)

SMILES: C[C@@H]1CC[C@H]2[C@@H](C)C(=O)O[C@@H]3O[C@@]4(C)CC[C@@H]1[C@]32OO4 [ARTEMISININ]
- FIC50 (Plasmodium falciparum [2]): 1.3
- FIC50 (Plasmodium falciparum [3]): 2.5
- FIC50 (Plasmodium falciparum [4]): 1.2
- FIC50 (Plasmodium falciparum [5]): 1.2
- FIC50 (Plasmodium falciparum [6]): 1.8
- FIC50 (Plasmodium falciparum [7]): 2.2
- FIC50 (Plasmodium falciparum [8]): 1.1
- FIC50 (Plasmodium falciparum [9]): 2
- FIC50 (Plasmodium falciparum [10]): 1.4
- FIC50 (Plasmodium falciparum [11]): 2.1
- FIC50 (Plasmodium falciparum [12]): 2.3
- FIC50 (Plasmodium falciparum [13]): 1.1
- FIC50 (Plasmodium falciparum [14]): 2.3
- FIC50 (Plasmodium falciparum [15]): 1.1
- FIC50 (Plasmodium falciparum [16]): 1.3
- FIC50 (Plasmodium falciparum [17]): 1.1
- FIC50 (Plasmodium falciparum [18]): 2.8
- FIC50 (Plasmodium falciparum [19]): 1.1
- FIC50 (Plasmodium falciparum [20]): 1
- FIC50 (Plasmodium falciparum [21]): 1.9
- FIC50 (Plasmodium falciparum [22]): 1.4
- FIC50 (Plasmodium falciparum [23]): 2
- FIC50 (Plasmodium falciparum [24]): 1.1
- FIC50 (Plasmodium falciparum [25]): 2.8
- FIC50 (Plasmodium falciparum [26]): 2.6
- FIC50 (Plasmodium falciparum [27]): 1.3
- FIC50 (Plasmodium falciparum [28]): 4
- FIC50 (Plasmodium falciparum [29]): 1.9

SMILES: CC1(C)CC(O)CC(C)(C)N1[O] [TEMPOL]
- IC50 (Plasmodium falciparum [1]; [31]): 19 µg/mL (≈ 110 µM)
